# Results: ChEMBL document CHEMBL1932917, “4,5-dihydropyridazin-3-one derivatives as histamine H₃ receptor inverse agonists” (Bioorg Med Chem Lett, 2012)
# How the values were obtained:
# Histamine H3 receptor [1] = target: Histamine H3 receptor (Rattus norvegicus, UniProt Q9QYN8); experiment: Displacement of [3H]NAMH from rat histamine H3 receptor expressed in CHO cells; format: cell-based
# Cytochrome P450 2C9 = Cytochrome P450 2C9 (Homo sapiens, UniProt P11712); experiment: Inhibition of CYP2C9; format: ADME
# Cytochrome P450 2C19 = Cytochrome P450 2C19 (Homo sapiens, UniProt P33261); experiment: Inhibition of CYP2C19; format: ADME
# Rattus norvegicus [2] = experiment: (§1) Oral bioavailability in rat at 5 mg/kg; format: ADME, organism-based; conditions: in vivo
# Rattus norvegicus [3] = experiment: (§2) Cmax in rat at 5 mg/kg, po; format: ADME, organism-based; design: dose 5 mg/kg, route oral; conditions: in vivo
# Cytochrome P450 1A2 = target: T1, Cytochrome P450 1A2 (Homo sapiens, UniProt P05177); experiment: Inhibition of CYP1A2; format: ADME
# T1 sequence (P05177 whole entry): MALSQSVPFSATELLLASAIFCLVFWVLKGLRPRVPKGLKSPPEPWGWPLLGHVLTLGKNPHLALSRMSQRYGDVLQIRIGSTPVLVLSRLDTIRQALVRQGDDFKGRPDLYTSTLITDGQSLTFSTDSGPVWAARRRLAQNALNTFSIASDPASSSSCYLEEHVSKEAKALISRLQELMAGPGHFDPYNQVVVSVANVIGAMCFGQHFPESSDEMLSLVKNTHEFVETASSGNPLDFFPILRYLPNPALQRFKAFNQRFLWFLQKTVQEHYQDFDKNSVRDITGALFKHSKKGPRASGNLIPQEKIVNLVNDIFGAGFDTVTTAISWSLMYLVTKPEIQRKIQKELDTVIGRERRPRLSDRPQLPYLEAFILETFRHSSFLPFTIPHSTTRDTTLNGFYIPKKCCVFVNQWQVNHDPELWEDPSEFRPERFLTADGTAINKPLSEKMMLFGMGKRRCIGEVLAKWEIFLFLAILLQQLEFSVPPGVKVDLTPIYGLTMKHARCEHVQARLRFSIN
# Cytochrome P450 2D6 = Cytochrome P450 2D6 (Homo sapiens, UniProt P10635); experiment: Inhibition of CYP2D6; format: ADME
# Rattus norvegicus [4] = experiment: (§3) Half life in rat at 1 mg/kg, iv; format: ADME, organism-based; design: dose 1 mg/kg, route intravenous; conditions: in vivo
# Histamine H3 receptor [5] = target: T2, Histamine H3 receptor (Homo sapiens, UniProt Q9Y5N1); experiment: Displacement of [3H]NAMH from human histamine H3 receptor expressed in CHO cells; format: cell-based
# [6] = Ratio of drug level in brain to plasma in rat at 10 mg/kg, ip after 6 hrs; format: ADME, organism-based; design: dose 10 mg/kg, route intraperitoneal; conditions: for Kp at 6 h: brain/plasma, read-out: BPR
# Rattus norvegicus [7] = experiment: (§4) Volume of distribution in rat at 1 mg/kg, iv; format: ADME, organism-based; design: dose 1 mg/kg, route intravenous; conditions: in vivo
# Rattus norvegicus [8] = experiment: (§5) AUC in rat at 5 mg/kg, po; format: ADME, organism-based, Plasma; design: dose 5 mg/kg, route oral; conditions: in vivo
# Cytochrome P450 3A4 = Cytochrome P450 3A4 (Homo sapiens, UniProt P08684); experiment: Inhibition of CYP3A4; format: ADME
# Histamine H3 receptor [9] = target: T2, Histamine H3 receptor; experiment: Inverse agonist activity at human histamine H3 receptor by [35S]GTPgammaS binding assay; format: functional
# [10] = Half life in human liver microsomes; format: ADME, Microsome
# [11] = Half life in rat liver microsomes; format: ADME, Microsome
# [12] = as §1; format: ADME, organism-based; conditions: in vivo
# [13] = as §2; format: ADME, organism-based; design: dose 5 mg/kg, route oral; conditions: in vivo
# [14] = Half life in dog liver microsomes; format: ADME, Canis lupus familiaris, Microsome
# [15] = Half life in mouse liver microsomes; format: ADME, Microsome
# [16] = Half life in monkey liver microsomes; format: ADME, Macaca mulatta, Microsome; conditions: rhesus monkey
# [17] = as §3; format: ADME, organism-based; design: dose 1 mg/kg, route intravenous; conditions: in vivo
# [18] = as §4; format: ADME, organism-based; design: dose 1 mg/kg, route intravenous; conditions: in vivo
# [19] = as §5; format: ADME, organism-based, Plasma; design: dose 5 mg/kg, route oral; conditions: plasma
# [20] = Apparent permeability of the compound in human Caco2 cells; format: ADME, cell-based; conditions: Caco-2
# [21] = Solubility of the compound in water at pH 7.4; format: physicochemical
# [22] = target: T3, Muscarinic acetylcholine receptor M2 (Homo sapiens) (UniProt P08172); experiment: Inhibition of muscarinic M2 receptor at 10 uM
# T3 sequence (whole entry): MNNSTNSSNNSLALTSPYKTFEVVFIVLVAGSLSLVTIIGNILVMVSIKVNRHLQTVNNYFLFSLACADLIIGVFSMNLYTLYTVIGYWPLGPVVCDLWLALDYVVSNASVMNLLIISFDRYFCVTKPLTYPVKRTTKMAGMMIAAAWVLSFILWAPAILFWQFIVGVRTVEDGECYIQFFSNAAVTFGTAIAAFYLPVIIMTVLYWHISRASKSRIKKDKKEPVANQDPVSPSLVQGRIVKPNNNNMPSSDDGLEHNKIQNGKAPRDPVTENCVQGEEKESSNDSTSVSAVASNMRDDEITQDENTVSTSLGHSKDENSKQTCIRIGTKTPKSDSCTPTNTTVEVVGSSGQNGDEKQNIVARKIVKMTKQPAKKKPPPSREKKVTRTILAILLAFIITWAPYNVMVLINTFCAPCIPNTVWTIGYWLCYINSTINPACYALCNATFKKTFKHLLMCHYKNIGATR
# Rattus norvegicus [23] = experiment: Inhibition of RAMH-induced dipsogenia in po dosed rat; format: functional
# [24] = Solubility of the compound in water at pH 2; format: physicochemical
# [25] = Drug uptake in rat brain at 5 mg/kg, po after 6 hrs; format: ADME, organism-based; design: dose 5 mg/kg, route oral; conditions: read-out: Drug uptake
# [26] = Clearance in rat at 1 mg/kg, iv; format: ADME, organism-based; design: dose 1 mg/kg, route intravenous; conditions: in vivo
# Rattus norvegicus [27] = experiment: Effect on sleep-awake cycle in EEG/EMG rat model assessed as wake promotion at 10 mg/kg, ip after 4 hrs (reference value: 80 +/- 5 mins); format: functional; conditions: route intraperitoneal
# [28] = target: Histamine H4 receptor (Homo sapiens) (UniProt Q9H3N8); experiment: Inhibition human histamine H4 receptor at 10 uM
# [29] = Plasma protein binding in rat; format: ADME, cell-free; conditions: read-out: PPB (converted)
# [30] = target: Histamine H1 receptor (Homo sapiens) (UniProt P35367); experiment: Inhibition human histamine H1 receptor at 10 uM
# Rattus norvegicus [31] = experiment: Effect on sleep-awake cycle in EEG/EMG rat model assessed as wake promotion at 1 mg/kg, ip after 4 hrs (reference value: 80 +/- 5 mins); format: functional; conditions: route intraperitoneal
# [32] = target: Histamine H2 receptor (Homo sapiens) (UniProt P25021); experiment: Inhibition human histamine H2 receptor at 10 uM
# Rattus norvegicus [33] = experiment: Effect on sleep-awake cycle in EEG/EMG rat model assessed as wake promotion time at 10 mg/kg, ip after 4 hrs relative to control; format: functional; conditions: route intraperitoneal
# Rattus norvegicus [34] = experiment: Effect on sleep-awake cycle in EEG/EMG rat model assessed as wake promotion at 3 mg/kg, ip after 4 hrs (reference value: 80 +/- 5 mins); format: functional; conditions: route intraperitoneal
# [35] = Plasma protein binding in dog; format: ADME, cell-free, Canis lupus familiaris; conditions: read-out: PPB (converted)
# [36] = Plasma protein binding in human; format: ADME, cell-free; conditions: read-out: PPB (converted)
# Rattus norvegicus [37] = experiment: Effect on sleep-awake cycle in EEG/EMG rat model assessed as wake promotion at 10 mg/kg, ip after 17 hrs relative to control; format: functional; conditions: route intraperitoneal
# Rattus norvegicus [38] = experiment: Effect on sleep-awake cycle in EEG/EMG rat model assessed as wake promotion time at 10 mg/kg, ip after 3 hrs relative to control; format: functional; conditions: route intraperitoneal
# Rattus norvegicus [39] = experiment: Effect on sleep-awake cycle in ip dosed EEG/EMG rat model assessed as wake promotion after 4 hrs relative to control; format: functional, organism-based
# Rattus norvegicus [40] = experiment: Effect on sleep-awake cycle in EEG/EMG rat model assessed as wake promotion at 10 mg/kg, ip after 5 hrs relative to control; format: functional; conditions: route intraperitoneal
# Histamine H3 receptor [41] = target: T2, Histamine H3 receptor; experiment: Antagonist activity at human histamine H3 receptor by [35S]GTPgammaS binding assay; format: functional
# Sequence of Cytochrome P450 2C19 (P33261 whole entry): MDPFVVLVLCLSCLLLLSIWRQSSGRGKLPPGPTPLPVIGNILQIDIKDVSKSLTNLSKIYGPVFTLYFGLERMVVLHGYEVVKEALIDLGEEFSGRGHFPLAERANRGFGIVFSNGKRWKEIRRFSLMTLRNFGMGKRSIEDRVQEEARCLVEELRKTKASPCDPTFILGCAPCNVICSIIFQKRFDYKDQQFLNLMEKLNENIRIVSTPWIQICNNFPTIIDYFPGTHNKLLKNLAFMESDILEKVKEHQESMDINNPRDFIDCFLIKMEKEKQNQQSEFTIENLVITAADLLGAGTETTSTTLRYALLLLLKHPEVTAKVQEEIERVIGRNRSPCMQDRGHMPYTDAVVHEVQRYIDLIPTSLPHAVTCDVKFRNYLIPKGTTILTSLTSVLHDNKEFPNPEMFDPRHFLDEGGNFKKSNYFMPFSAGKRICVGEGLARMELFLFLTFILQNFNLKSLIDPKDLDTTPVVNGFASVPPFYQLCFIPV
# Sequence of Cytochrome P450 2C9 (P11712 whole entry): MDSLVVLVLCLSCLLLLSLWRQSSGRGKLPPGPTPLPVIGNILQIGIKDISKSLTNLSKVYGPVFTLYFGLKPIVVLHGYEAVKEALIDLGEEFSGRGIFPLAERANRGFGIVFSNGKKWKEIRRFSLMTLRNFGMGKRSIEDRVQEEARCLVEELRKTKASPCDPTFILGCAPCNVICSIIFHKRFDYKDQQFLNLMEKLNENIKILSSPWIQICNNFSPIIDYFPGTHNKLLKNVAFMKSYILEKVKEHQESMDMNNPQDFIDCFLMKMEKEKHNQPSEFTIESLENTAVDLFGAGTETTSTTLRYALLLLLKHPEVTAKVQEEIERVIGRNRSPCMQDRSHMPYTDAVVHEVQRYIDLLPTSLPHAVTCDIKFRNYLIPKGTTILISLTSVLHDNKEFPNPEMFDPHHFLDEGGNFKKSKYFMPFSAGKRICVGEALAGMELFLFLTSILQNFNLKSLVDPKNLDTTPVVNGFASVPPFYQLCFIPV
# T2 sequence (Q9Y5N1 whole entry): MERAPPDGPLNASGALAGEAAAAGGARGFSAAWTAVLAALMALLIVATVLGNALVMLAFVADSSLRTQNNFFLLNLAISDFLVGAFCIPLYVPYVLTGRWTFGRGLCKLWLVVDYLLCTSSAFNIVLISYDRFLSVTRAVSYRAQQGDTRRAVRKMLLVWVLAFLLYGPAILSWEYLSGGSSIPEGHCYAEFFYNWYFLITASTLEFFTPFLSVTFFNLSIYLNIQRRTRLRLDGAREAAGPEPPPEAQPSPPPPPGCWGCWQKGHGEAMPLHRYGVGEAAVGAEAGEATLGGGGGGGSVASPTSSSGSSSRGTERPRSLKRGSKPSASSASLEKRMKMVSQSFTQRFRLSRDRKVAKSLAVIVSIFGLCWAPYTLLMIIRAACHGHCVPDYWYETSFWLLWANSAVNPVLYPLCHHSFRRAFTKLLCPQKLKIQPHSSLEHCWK
# Sequence of Cytochrome P450 3A4 (P08684 whole entry): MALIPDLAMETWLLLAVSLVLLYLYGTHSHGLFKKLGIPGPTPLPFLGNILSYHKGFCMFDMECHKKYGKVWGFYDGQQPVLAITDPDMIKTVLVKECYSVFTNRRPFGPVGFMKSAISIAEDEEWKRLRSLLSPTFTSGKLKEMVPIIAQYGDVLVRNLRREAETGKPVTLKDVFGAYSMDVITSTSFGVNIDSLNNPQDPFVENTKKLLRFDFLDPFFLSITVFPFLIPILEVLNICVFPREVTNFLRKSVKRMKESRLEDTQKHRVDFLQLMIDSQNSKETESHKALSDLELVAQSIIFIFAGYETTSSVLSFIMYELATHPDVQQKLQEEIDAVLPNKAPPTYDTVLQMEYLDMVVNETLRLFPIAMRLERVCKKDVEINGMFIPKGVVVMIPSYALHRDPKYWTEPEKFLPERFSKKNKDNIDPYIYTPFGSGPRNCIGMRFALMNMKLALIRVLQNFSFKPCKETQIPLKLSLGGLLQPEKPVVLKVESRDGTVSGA
# Sequence of Histamine H3 receptor (Rattus norvegicus, UniProt Q9QYN8) (Q9QYN8 whole entry): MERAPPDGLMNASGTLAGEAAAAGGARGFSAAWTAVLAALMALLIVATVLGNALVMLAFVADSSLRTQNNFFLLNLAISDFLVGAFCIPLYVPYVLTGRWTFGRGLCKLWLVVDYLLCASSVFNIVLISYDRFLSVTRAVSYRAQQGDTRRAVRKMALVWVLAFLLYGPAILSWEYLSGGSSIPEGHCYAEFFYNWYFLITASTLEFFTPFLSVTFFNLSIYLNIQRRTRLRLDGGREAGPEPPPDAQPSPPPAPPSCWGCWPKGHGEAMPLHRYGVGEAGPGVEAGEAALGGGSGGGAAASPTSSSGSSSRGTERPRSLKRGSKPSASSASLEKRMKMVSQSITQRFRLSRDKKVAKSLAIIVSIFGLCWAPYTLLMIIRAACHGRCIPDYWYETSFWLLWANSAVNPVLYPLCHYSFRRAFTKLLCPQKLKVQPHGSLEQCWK
# Sequence of Cytochrome P450 2D6 (P10635 whole entry): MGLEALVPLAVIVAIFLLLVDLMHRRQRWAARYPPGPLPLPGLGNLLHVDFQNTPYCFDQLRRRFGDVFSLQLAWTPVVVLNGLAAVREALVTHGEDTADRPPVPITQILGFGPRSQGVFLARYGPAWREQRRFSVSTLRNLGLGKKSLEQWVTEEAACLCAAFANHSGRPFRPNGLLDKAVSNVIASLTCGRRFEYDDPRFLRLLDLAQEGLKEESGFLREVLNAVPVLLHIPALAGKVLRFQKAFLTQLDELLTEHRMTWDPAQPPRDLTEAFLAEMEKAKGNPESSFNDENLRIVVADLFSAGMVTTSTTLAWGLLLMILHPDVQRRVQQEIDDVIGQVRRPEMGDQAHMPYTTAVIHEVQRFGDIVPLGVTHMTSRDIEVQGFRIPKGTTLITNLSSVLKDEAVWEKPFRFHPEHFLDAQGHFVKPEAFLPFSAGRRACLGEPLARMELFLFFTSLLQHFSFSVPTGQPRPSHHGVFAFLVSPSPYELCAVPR
# Sequence of Histamine H1 receptor (Homo sapiens) (P35367 whole entry): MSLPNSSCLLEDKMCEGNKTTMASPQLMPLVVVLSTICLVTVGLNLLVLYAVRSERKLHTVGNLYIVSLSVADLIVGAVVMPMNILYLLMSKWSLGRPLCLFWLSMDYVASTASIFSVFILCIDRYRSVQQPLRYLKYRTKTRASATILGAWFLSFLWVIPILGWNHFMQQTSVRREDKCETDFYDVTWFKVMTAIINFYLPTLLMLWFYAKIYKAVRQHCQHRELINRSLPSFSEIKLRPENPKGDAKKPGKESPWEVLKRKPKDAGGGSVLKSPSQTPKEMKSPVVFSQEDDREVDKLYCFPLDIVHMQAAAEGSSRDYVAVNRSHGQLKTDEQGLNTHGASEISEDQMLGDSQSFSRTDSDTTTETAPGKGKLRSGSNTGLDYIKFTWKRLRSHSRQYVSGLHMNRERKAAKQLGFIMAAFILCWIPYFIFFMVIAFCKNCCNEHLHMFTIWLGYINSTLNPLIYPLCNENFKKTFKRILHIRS
# Sequence of Histamine H4 receptor (Homo sapiens) (Q9H3N8 whole entry): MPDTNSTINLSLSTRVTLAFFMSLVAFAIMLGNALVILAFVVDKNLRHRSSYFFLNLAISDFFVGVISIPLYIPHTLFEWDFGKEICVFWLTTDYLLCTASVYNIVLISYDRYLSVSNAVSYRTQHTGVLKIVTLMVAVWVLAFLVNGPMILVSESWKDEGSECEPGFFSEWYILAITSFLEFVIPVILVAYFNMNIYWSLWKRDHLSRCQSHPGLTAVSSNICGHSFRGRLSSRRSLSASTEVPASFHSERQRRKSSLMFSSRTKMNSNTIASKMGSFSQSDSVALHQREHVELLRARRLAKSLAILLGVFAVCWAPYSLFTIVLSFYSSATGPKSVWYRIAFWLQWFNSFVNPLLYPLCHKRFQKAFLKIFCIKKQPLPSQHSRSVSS
# Sequence of Histamine H2 receptor (Homo sapiens) (P25021 whole entry): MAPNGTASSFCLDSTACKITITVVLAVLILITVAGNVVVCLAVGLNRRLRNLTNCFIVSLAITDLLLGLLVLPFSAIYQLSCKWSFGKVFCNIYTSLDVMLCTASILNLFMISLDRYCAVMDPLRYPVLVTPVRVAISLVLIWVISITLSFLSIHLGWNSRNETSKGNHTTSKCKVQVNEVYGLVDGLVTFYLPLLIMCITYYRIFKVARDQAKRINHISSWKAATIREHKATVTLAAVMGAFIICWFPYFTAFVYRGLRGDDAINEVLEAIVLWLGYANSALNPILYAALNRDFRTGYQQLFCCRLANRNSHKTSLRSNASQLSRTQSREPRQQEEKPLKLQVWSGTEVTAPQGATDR
smiles,measurement,setting,value
"CC1CC(=O)NN=C1c1ccc(OCCCN2CCC[C@H]2C)cc1 (single isomer, unassigned; isomer 2)",Ki,Histamine H3 receptor [1],20 nM
same,IC50,Cytochrome P450 2C9,> 30000 nM
same,IC50,Cytochrome P450 2C19,> 30000 nM
same,F,Rattus norvegicus [2],52%
same,Cmax,Rattus norvegicus [3],274 ng/mL
same,IC50,Cytochrome P450 1A2,> 30000 nM
same,IC50,Cytochrome P450 2D6,> 30000 nM
same,t1/2,Rattus norvegicus [4],90 min
same,Ki,Histamine H3 receptor [5],4.7 nM
same,BPR,"[6]; brain, 6 h",1.9
same,Vd,Rattus norvegicus [7],3.4 L/kg
same,AUC,Rattus norvegicus [8],1327 ng·h/mL
same,IC50,Cytochrome P450 3A4,> 30000 nM
same,EC50,Histamine H3 receptor [9],1.4 nM
CC1CC(=O)NN=C1c1ccc(OCCCN2CCC[C@H]2C)cc1 (stereo in doubt; 19a),Ki,Histamine H3 receptor [1],29 nM
same,IC50,Cytochrome P450 2C9,> 30000 nM
same,half-life,[10],> 40 min
same,half-life,[11],> 40 min
same,IC50,Cytochrome P450 2C19,> 30000 nM
same,bioavailability,[12],40%
same,Cmax,[13],301 ng/mL
same,half-life,[14],> 40 min
same,half-life,[15],> 40 min
same,IC50,Cytochrome P450 1A2,> 30000 nM
same,IC50,Cytochrome P450 2D6,> 30000 nM
same,half-life,[16],> 40 min
same,half-life,[17],108 min
same,Ki,Histamine H3 receptor [5],6.8 nM
same,Kp at 6 h,[6],1.8
same,Vd,[18],3.5 L/kg
same,AUC,[19],1360 ng·h/mL
same,IC50,Cytochrome P450 3A4,> 30000 nM
same,EC50,Histamine H3 receptor [9],1.3 nM
C[C@@H]1CCCN1CCCOc1ccc(C2=NNC(=O)CC2)cc1,Ki,Histamine H3 receptor [1],8.8 nM
same,IC50,Cytochrome P450 2C9,> 30000 nM
same,half-life,[10],> 40 min
same,half-life,[11],> 40 min
same,IC50,Cytochrome P450 2C19,> 30000 nM
same,bioavailability,[12],19%
same,Cmax,[13],376 ng/mL
same,Papp,[20],11.4 ×10⁻⁶ cm/s
same,half-life,[14],> 40 min
same,solubility,[21],> 2000 µg/mL
same,half-life,[15],> 40 min
same,IC50,Cytochrome P450 1A2,> 30000 nM
same,IC50,Cytochrome P450 2D6,> 11000 nM
same,half-life,[16],> 40 min
same,half-life,[17],66 min
same,inhibition,[22],60%
same,Ki,Histamine H3 receptor [5],3.2 nM
same,ED50,Rattus norvegicus [23],0.06 mg/kg
same,inhibition,Rattus norvegicus [23],Dose-dependent effect
same,Kp at 6 h,[6],3.1
same,solubility,[24],> 2000 µg/mL
same,Vd,[18],0.8 L/kg
same,concentration at 6 h,[25],2200 nM
same,AUC,[19],1830 ng·h/mL
same,clearance,[26],8.5 mL/min/kg
same,IC50,Cytochrome P450 3A4,> 11000 nM
same,EC50,Histamine H3 receptor [9],0.7 nM
C[C@@H]1CCCN1CCCOc1ccc(C2=NNC(=O)C(C)(C)C2)cc1,Ki,Histamine H3 receptor [1],13 nM
same,Activity,Rattus norvegicus [27],201 min
same,IC50,Cytochrome P450 2C9,> 30000 nM
same,half-life,[10],> 40 min
same,inhibition,[28],< 30%
same,half-life,[11],> 40 min
same,fraction unbound,[29],0.72
same,inhibition,[30],< 30%
same,IC50,Cytochrome P450 2C19,> 30000 nM
same,Activity,Rattus norvegicus [31],119 min
same,inhibition,[32],< 30%
same,bioavailability,[12],38%
same,Activity,Rattus norvegicus [33],150%
same,Cmax,[13],189 ng/mL
same,Activity,Rattus norvegicus [34],127 min
same,fraction unbound,[35],0.84
same,Papp,[20],14 ×10⁻⁶ cm/s
same,half-life,[14],> 40 min
same,solubility,[21],> 2000 µg/mL
same,half-life,[15],> 40 min
same,IC50,Cytochrome P450 1A2,> 30000 nM
same,IC50,Cytochrome P450 2D6,> 30000 nM
same,half-life,[16],> 40 min
same,half-life,[17],114 min
same,fraction unbound,[36],0.74
same,Ki,Histamine H3 receptor [5],4.3 nM
same,ED50,Rattus norvegicus [23],0.16 mg/kg
same,inhibition,Rattus norvegicus [23],Dose-dependent effect
same,Kp at 6 h,[6],2.4
same,solubility,[24],> 2000 µg/mL
same,Activity,Rattus norvegicus [37],203 min
same,Activity,Rattus norvegicus [38],90%
same,Vd,[18],4.7 L/kg
same,concentration at 6 h,[25],900 nM
same,Activity,Rattus norvegicus [39],Dose-dependent effect
same,AUC,[19],837 ng·h/mL
same,clearance,[26],27 mL/min/kg
same,IC50,Cytochrome P450 3A4,> 30000 nM
same,EC50,Histamine H3 receptor [9],0.73 nM
same,Activity,Rattus norvegicus [40],130 min
same,Kb,Histamine H3 receptor [41],0.18 nM
